How the values were obtained:
[1] = test system: LC3; assay: Immunofluorescence of LC3 accumulation around parasites; format: cell-based; settings: CHO cells and brain endothelial cells expressing DN EGFR, 1 μM, 5 hours
Description: (§1) FIGS. 3(A-L) illustrate images and graphs showing T. gondii killing induced by Src inhibition is mediated by autophagy. (A-C) CHO cells and primary brain endothelial cells expressing WT or DN EGFR were infected with RFP-T. gondii and treated with Saracatinib 1 μM for 5 hours before staining with an anti-LC3 antibody. Accumulation of LC3 around the parasites was assessed by confocal microscopy. Scale bar, 10 μm. (D-F) CHO cells and primary brain endothelial cells expressing WT or DN EGFR were infected with RFP-T. gondii and treated with Saracatinib 1 μM for 7 hours before staining with anti-LAMP1 antibody. Accumulation of LAMP1 around parasites was assessed as above. G-I) CHO cells and primary brain endothelial cells expressing WT or DN EGFR were transfected with control siRNA or ULK1 siRNA. Relative density of ULK1 was normalized to total Actin followed by normalization relative to Ctr siRNA. […] Cells were treated with or without Saracatinib and infected with RH T. gondii. Monolayers were examined at 24 h. […]
(§2) Mammalian cells were infected with RFP-T. gondii (RH) and fixed with 4% paraformaldehyde. […] LC3 and LAMP1 were evaluated for accumulation at 5- and 7 hours post-infection, respectively. […] Parasites were evaluated blindly in multiple random fields of view and 100 parasites were examined per group. […]

[2] = test system: PTEN; assay: Confocal microscopy of PTEN and GRA7 around parasites in CHO cells; format: cell-based, Chinese Hamster; settings: RFP-T. gondii
Description: (§3) Mammalian cells were infected with RFP-T. gondii (RH) and fixed with 4% paraformaldehyde. Cells were stained with antibodies against LC3 (MBL International, Woburn, MA), LAMP1 (DSHB, Iowa City, IA), or GRA7 (gift from John Boothroyd, Stanford University, Stanford, CA) followed by a fluorescently conjugated secondary antibodies (Jackson ImmunoResearch Laboratories, West Grove, PA). LC3 and LAMP1 were evaluated for accumulation at 5- and 7 hours post-infection, respectively. Cells were stained with antibodies against PTEN (Santa Cruz Biotechnology, Dallas, TX) or anti-phospho S473 Akt (Novus, Centennial, CO). Frozen brain sections were stained with antibodies against PTEN (Novus, Centennial, CO), phospho S473 Akt, SAG-1 (Invitrogen, Waltham, MA) or T. gondii (Biogenex, Fremont, CA). Parasites were evaluated blindly in multiple random fields of view and 100 parasites were examined per group. In-out assays were performed as described using RFP-T gondii, anti-SAG-1 antibody (Invitrogen, Waltham, MA) and an Alexa Fluor 488-conjugated secondary antibody. Olympus FV1200 confocal microscope (Evident/Olympus, Waltham, MA) equipped with UPlanSApa 60× and 100× 1.45NA objectives was used to evaluate the slides.

[3] = test system: ME49 T. gondii; assay: Ocular and cerebral toxoplasmosis in Becn1+/+ and Becn1+/- mice; format: in vivo; settings: 10 mg kg-1, 2 weeks
[4] = test system: phospho-S473 Akt; assay: Confocal microscopy of phospho-S473 Akt accumulation around parasites in CHO cells; format: cell-based, Chinese Hamster; settings: RFP-T. gondii
Description: as §3

[5] = test system: ME49 T. gondii; assay: Ocular and cerebral toxoplasmosis in Dexamethasone-treated mice; format: in vivo, C57BL/6 mice; settings: 10 mg kg-1 twice per day, 2 weeks, vs vehicle
From the text: Female mice between the ages of 6 to 8 weeks old were infected with 10 cysts of the ME49 T. gondii for four weeks.

[6] = test system: Lek and Fyn in T cells; settings: cited from earlier work
[7] = in vivo; cited from earlier work
[8] = test system: EGS T. gondii cysts; assay: Parasite cysts in CHO cells infected with EGS T. gondii; format: cell-based, Toxoplasma gondii; settings: Saracatinib 1 μM, 4 days
From the text: We infected CHO cells with EGS T. gondii, a strain of the parasite that spontaneously form cysts in vitro.

[9] = test system: Akt; assay: Immunoblot of phospho-S473 Akt in T. gondii-infected CHO cells; format: cell-based, Chinese Hamster; settings: lysates at 2 h
Description: FIGS. 4(A-C) illustrate Src inhibition induces T. gondii killing by impairing Akt activation. (A) CHO cells were challenged with RH-T. gondii. Cell lysates collected at 2 h were probed for Akt and phospho-S473 Akt. Relative density of phospho-Akt was normalized to total Akt and compared to the uninfected sample. Densitometry graph shown as mean±SEM from 3 independent experiments. (B-C) CHO cells or primary brain endothelial cells were transfected with plasmids encoding HA-tagged CA- or HA-tagged WT-Akt. Lysates were probed for actin, HA, Akt and phospho-S473 Akt. Cells were challenged with T. gondii and treated with Saracatinib (1 μM). Cell lysates collected at 2 h were probed for Akt and phospho-S473 Akt. Relative density of phospho-Akt and densitometries were examined as above. Percentages of infected cells and tachyzoites per 100 cells were assessed at 24 h. Data are shown as mean±SEM. The graphs show data from 6 independent monolayers pooled from 3 different experiments. Data points are shown as circles, triangles, or squares corresponding to individual monolayers within each experiment. […]

[10] = test system: LAMP1; assay: Immunofluorescence of LAMP1 accumulation around parasites; format: cell-based; settings: CHO cells and brain endothelial cells, 1 μM, 7 hours
Description: as §1, §2

[11] = test system: ME49 T. gondii; assay: Suboptimal dose combination in mice with ocular and cerebral toxoplasmosis; format: in vivo, C57BL/6 mice; settings: 2.5 mg/Kg once a day, 14 days
Description: C57BL/6 mice that had been infected with tissue cysts of ME49 T. gondii for 4 weeks (at a time when animals have developed ocular and cerebral toxoplasmosis), were treated with suboptimal dose of Saracatinib (2.5 mg/Kg once a day) with or without suboptimal dose of Pyrimethamine (4.2 mg/Kg once a day) for 14 days.

Q: Which results are given for `CN1CCN(CCOc2cc(OC3CCOCC3)c3c(Nc4c(Cl)ccc5c4OCO5)ncnc3c2)CC1` [Saracatinib, N-(5-chloro-1,3-benzodioxol-4-yl)-7-(2-(4-methylpiperazin-1-yl)ethoxy)-5-(tetrahydro-2H-pyran-4-yloxy)quinazolin-4-amine]?
A: accumulation of LC3 around the parasites [1]: induced accumulation; association of PTEN to the PVM [2]: co-expression of PTEN and GRA7; ocular and cerebral histopathology ([3]; Becn 1+/+ mice): improvement; parasite load ([3]; Becn 1+/+ mice): improvement; response of histopathology and parasite loads ([3]; autophagy-deficient Becn 1+/- mice): did not respond; accumulation of phospho-S473 Akt around intracellular parasites [4]: inhibited; histopathology in the eye and brain [5]: significantly reduced; parasite load in the eye and brain [5]: significantly reduced; activity of Lek and Fyn in T cells [6]: did not inhibit; T cell expansion and IFN-γ production following antigenic stimulation ([6]; low doses, previously primed T cells, in vitro and in vivo): increased T cell expansion and IFN-γ production; blood-brain barrier penetration [7]: penetrates the blood-brain barrier; tolerability [7]: well-tolerated; morphology of bradyzoites in remaining cysts [8]: altered morphology; reduction in the number of cysts [8]: ~60%; T. gondii-induced phosphorylation of Akt at Ser473 [9]: abrogated; accumulation of LAMP1 around intracellular parasites [10]: accumulation of the lysosomal marker, LAMP1, was observed; load of tissue cysts [11]: neither the low dose Saracatinib nor the low dose Pyrimethamine decreased

Source: US20250312349A1, “COMPOSITION AND METHODS OF TREATING INTRACELLULAR PATHOGEN INFECTION” (UNIVERSITY HOSPITALS CLEVELAND MEDICAL CENTER, priority 2024, published 2025)
